Test results published in article PMC7181703, “Using proteolysis-targeting chimera technology to reduce navitoclax platelet toxicity and improve its senolytic activity” (Nature Communications, 2020).
Read-outs that look alike come from different tables or passages of the source.

What was measured:
Bcl-w = target: T1, Bcl-w (Homo sapiens, UniProt Q92843); assay: biochemical; design: AlphaLISA competitive displacement of biotin-tagged BAD or BIM peptide from His-tagged Bcl-2 family protein
T1 construct: gene BCL2L2; Purified recombinant His-tagged Bcl-w
T1 sequence (Q92843 2-193): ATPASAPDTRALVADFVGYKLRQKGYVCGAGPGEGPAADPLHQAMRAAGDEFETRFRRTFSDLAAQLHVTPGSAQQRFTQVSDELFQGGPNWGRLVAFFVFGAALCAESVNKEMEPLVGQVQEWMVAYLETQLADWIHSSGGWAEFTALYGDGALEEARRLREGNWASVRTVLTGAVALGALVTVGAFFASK
Procedure: Purified recombinant His-tagged Bcl-xl, His-tagged Bcl-2 and His-tagged Bcl-w (Cat. No. SRP0187 for Bcl-xl, Cat. No. SRP0186 for Bcl-2 and Cat. No. B1059 for Bcl-w, Sigma-Aldrich) were incubated with increasing concentrations of compounds and a fixed concentration of biotin-tagged BAD (Cat No. SQ-ASPE-66592-1, AnaSpec, Fremont, CA) (for Bcl-xl) or BIM (Cat. No. SQ-ASPE-66592-2, AnaSpec) (for Bcl-2 and Bcl-w) peptides to a final volume of 40 µL in 96-well PCR plates. After 24 h incubation, 5 µL 6X His-Acceptor beads (final concentration 20 µg/mL) (Cat. No. AL128M, Perkin-Elmer, Waltham, MA, USA) were added to each well and incubated for 1 h. Thereafter, 5 µL streptavidin-donor beads were added (final concentration of 20 µg/mL) (Cat. No. 6760002, Perkin-Elmer) to each well and incubated for 30 min. At the end of the incubation period, 17 µL of each sample was transferred into adjacent wells of 384-well proxy plate (Cat. No. 6008280, Perkin-Elmer). The plate was scanned using Alpha program on a Biotek’s Synergy Neo2 multi-mode plate reader (Winooski, VT, USA). Gen5 version 3.04 software (BioTek, USA) was used for the AlphaLISA signal measurements. The inhibition constant (Ki) was calculated using non-linear regression, one site, competitive binding, fit Ki function on GraphPad Prism 7 software based on experimentally determined Kd for each protein/peptide pair.

cereblon (CRBN) = cereblon (CRBN) (Homo sapiens, UniProt Q96SW2); assay: CRBN-dependent Bcl-xl degradation in WI38 cells: CRBN knockout, pomalidomide competition, N-methyl negative control; assay type: cell-based
Bcl-xl = target: T2, Bcl-xl (Homo sapiens, UniProt Q07817); assay: AlphaLISA/AlphaScreen competitive binding with biotin-tagged BAD peptide
T2 construct: gene BCL2L1; Purified recombinant His-tagged Bcl-xl

Bcl-2 = target: T3, Bcl-2 (Homo sapiens, UniProt P10415); design: AlphaLISA competitive displacement of biotin-tagged BAD or BIM peptide from His-tagged Bcl-2 family protein; conditions: inhibitor
T3 construct: gene BCL2; Purified recombinant His-tagged Bcl-2

Structure (SMILES)	Ki (Bcl-w)	CRBN-dependent Bcl-xl degradation in WI38 cells: CRBN knockout, pomalidomide com (cereblon (CRBN))	Ki (Bcl-w; inhibitor)	Ki (Bcl-xl)	Ki (Bcl-2)
CC1(C)CCC(c2ccc(Cl)cc2)=C(CN2CCN(c3ccc(C(=O)NS(=O)(=O)c4ccc(N[C@H](CCN5CCOCC5)CSc5ccccc5)c(S(=O)(=O)C(F)(F)F)c4)cc3)CC2)C1 [ABT263]	8.5 nM				
CC1(C)CCC(c2ccc(Cl)cc2)=C(CN2CCN(c3ccc(C(=O)NS(=O)(=O)c4ccc(N[C@H](CCN5CCN(C(=O)CCCn6cc(COCCOCCNc7cccc8c7C(=O)N(C7CCC(=O)NC7=O)C8=O)nn6)CC5)CSc5ccccc5)c(S(=O)(=O)C(F)(F)F)c4)cc3)CC2)C1 (some centres unmarked) [PZ, PZ15227]		PZ had no effect on the levels of Bcl-xl in CRBN knockout cells (Fig. 2e)	> 1000 nM	1.9 nM	3.52 nM
